Results taken from publication PMC8952799, “Two Male-Specific Antimicrobial Peptides SCY2 and Scyreprocin as Crucial Molecules Participated in the Sperm Acrosome Reaction of Mud Crab Scylla paramamosain” (International Journal of Molecular Sciences, 2022).
pKd: −log10 of the molar value.

Experiments:
Assay in all cases: modified ELISA on progesterone-coated plate, Scatchard plot
[1] = biological target: T1, rSCY2 (Scylla paramamosain, UniProt A0AAW0UAN3); assay type: binding; conditions: protein 0-24 uM on plate coated with 3 ug progesterone; antibody detection; rSCY2 alone
T1 construct: gene SCY2; recombinant His-tagged SCY2, purified

[2] = biological target: T2, rScyreprocin (Scylla paramamosain, UniProt A0A7D0GB18); assay type: binding
T2 construct: recombinant His-tagged scyreprocin, purified
T2 sequence (A0A7D0GB18 1-84): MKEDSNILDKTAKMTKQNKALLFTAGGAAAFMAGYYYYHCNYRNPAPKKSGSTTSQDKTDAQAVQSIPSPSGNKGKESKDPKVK

[3] = biological target: T3, rScyreprocin/rSCY2 mixture; assay type: binding, Scylla paramamosain; conditions: protein mixture 0-24 uM on plate coated with 3 ug progesterone; antibody detection; both proteins present
T3 construct: gene scyreprocin; complex not isolated, stoichiometry unknown

T1 sequence (A0AAW0UAN3 25-124 limits assumed): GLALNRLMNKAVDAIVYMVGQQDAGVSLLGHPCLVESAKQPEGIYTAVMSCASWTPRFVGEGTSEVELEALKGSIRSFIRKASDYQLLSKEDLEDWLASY

**Q.** `CC(=O)[C@H]1CC[C@H]2[C@@H]3CCC4=CC(=O)CC[C@]4(C)[C@H]3CC[C@]12C` [progesterone] was tested. Which pKd [1] did it give?
**A.** 6.84

**Q.** And the pKd [2]?
**A.** 6.59

**Q.** What about the pKd [3] of the same compound?
**A.** 7.14
